The values that follow come from PubChem BioAssay AID1508591.

Structures are written as SMILES.

For this data set the following is noted: rat; liver microsomes; pH 7.4; 15.0 min; 1.0 µM. Background: Liver microsomes are vesicles of endoplasmic reticulum, rich in cytochrome P450 enzymes.

For orientation: half-life means the time in which the quantity being followed falls by half. Compound `COc1ccc(Nc2ncc(C(=O)Nc3cccc(Cl)c3)c3ccccc23)cc1` returned a half-life of 16.5 min.
The figure for `CCCNC(=O)[C@H]1O[C@H]1C(=O)N[C@H](C(=O)N1CCC[C@@H]1C(=O)OC)C(C)CC` (stereo not given in full) is > 30 min; for `CSc1cccc(NC(=O)CC[C@H]2O[C@@H]3O[C@]4(C)CC[C@H]5[C@H](C)CC[C@@H]([C@@H]2C)[C@@]35OO4)c1` it is 2.3 min.
Consider `NC(=O)C1CCN(c2cc(-c3ccc4c(c3)OCCCO4)ncn2)CC1`, for which the half-life is > 30 min.
`Cc1cnc(-c2ccccc2C(C)C)nc1NCC1CN(c2cccnc2)C1` had a half-life of 2.6 min.
For the compound `NC(=O)C1CCN(c2nc(-c3ccc(Cl)cc3)cs2)CC1`, the half-life was 3.09 min.
`Cc1noc(C)c1C(=O)N1CCC2(CCCN(C(c3ccccc3)c3ccccc3)C2)CC1` had a half-life of 1.7 min.
In the case of `COc1cc(C2c3c(oc4cc(C)c(C)cc4c3=O)C(=O)N2CCCN2CCOCC2)ccc1O` (stereo not given), the half-life is 12.7 min.
As for `CNc1oc(-c2cccc(-c3ccccc3)c2)nc1C#N`, the half-life was 12 min.
The value for `Cc1ccc(-c2cc(C(=O)NC3CCCCC3)c3ccccc3n2)cc1` was 9.42 min; that for `O=C(c1ccc2c(c1)ncn2-c1ccc(Cl)cc1)N1CCCCC1` was 9.8 min.
The figure for `Cc1cc(NS(=O)(=O)c2ccc(C(=O)NCc3ccc(Cl)c(Cl)c3)cc2)no1` is > 30 min; for `CCOC(=O)Cc1ccc(NC(=O)n2ncc3cc(Cl)ccc32)cc1` it is 2.5 min.
In the case of `O=C1Nc2ccccc2/C1=C\c1cc(Br)c(O)c(Br)c1`, the half-life was 26 min.
The figure for `CC1=C(C(=O)Nc2ccccc2C)C(c2ccccc2Br)N=C(Nc2nc3ccccc3o2)N1` (stereo not given) is 12 min; for `CC1(C)C[C@@H]2C[C@@](C)(CN2S(=O)(=O)c2ccc(C(=O)Nc3ccc(Cl)c(S(=O)(=O)N4CCOCC4)c3)cc2)C1` it is 3.95 min; for `Cc1ccc2cccc(NC(=O)c3ccc(OC(C)C)cc3)c2n1` it is 17.9 min.
`Fc1cc(Nc2nc(-c3ccncc3)nc3ccccc23)ccc1N1CCCCC1` displayed a half-life of 5.9 min.
In turn, `CCc1nc2c(sc3nc4c(cc32)COC(C)(C)C4)c(=O)n1Cc1ccco1` yielded a half-life of 6.88 min.
The figure for `O=C1NC(=O)C(c2cnc3ccccn23)=C1c1cn2c3c(cccc13)CN(C(=O)N1CCOCC1)CC2` is > 30 min; for `Cc1cc(-c2nnc3n2CCCCC3)c(C)n1-c1ccc(C(C)(C)C)cc1` it is 1.9 min.
For `O=C1CCCC2=C1C1(CCCC1)N=C(Nc1nc3cc(Br)ccc3o1)N2`, the half-life amounted to 4.9 min. Against the preceding compound, the half-life is about 2.6-fold higher.
The value for `O=C(c1ccccc1)N1CCC(C(=O)N2CCC(N3Cc4ccccc4C3=O)CC2)CC1` was > 30 min; that for `COc1ccc(C2C=C(c3ccc(Cl)cc3)Nc3nc(-c4ccc(Cl)cc4)nn32)cc1` (stereo not given) was > 30 min; that for `Cc1ccc(C)c(S(=O)(=O)NCC2CN(Cc3ccccc3)CCO2)c1` (stereo not given) was 1.6 min.
`COCCNC(=O)c1ccc(-c2ncc3cnc(-c4cccc(F)c4)cn23)cc1`: the half-life is > 30 min.
Compound `Cc1ccc(/C=C/c2nc3ccccc3n2S(=O)(=O)c2ccc(Br)cc2)cc1` came in with a half-life of 28.6 min.
Regarding `CN1CCN(c2ccc(-c3cccc(CN4CCOCC4)c3)cc2NC(=O)c2c[nH]c(=O)cc2C(F)(F)F)CC1`, the half-life is > 30 min.
Take `COCCNc1ncnc2onc(-c3ccc(F)cc3)c12`: the half-life was > 30 min.
The compound `COc1ccc(-n2c(C)c(C(C)=O)c3cc(O)ccc32)cc1` gave a half-life of 2.2 min.
With `CC(C)CC(=O)Nc1n[nH]c2c1CN(C(=O)C1CCN(C)CC1)C2(C)C`, the half-life was > 30 min.
In turn, `CN1C(=O)CN=C(c2ccccc2Cl)c2cc(Cl)ccc21` yielded a half-life of 3.04 min.
For the compound `Cc1ccc(-c2c(CN3CCN(c4cccc(C(F)(F)F)c4)CC3)csc2C)cc1`, the half-life stood at 18.5 min.
In turn, `CCOC(=O)N1CCN(Cc2nc3c(c(=O)n(C)c(=O)n3C)n2Cc2ccc(F)cc2)CC1` returned a half-life of 8.7 min.
The value for `Nc1ncc(S(=O)(=O)N2CCN(c3ccccc3)CC2)cn1` was 1.3 min; that for `CCOC(=O)C1CCN(c2ncc(-c3ccc4c(c3)OCCCO4)s2)CC1` was 2.37 min.
Turning to `COc1ccc(NC(=O)c2cccnc2C)cc1S(=O)(=O)Nc1ccc(Br)cc1`, the half-life came out at 11 min. This half-life is about 4.6-fold higher than that of the compound before.
`Cc1cc(NS(=O)(=O)c2ccc(NC(=O)Cc3ccc(Cl)c(Cl)c3)cc2)n(C)n1` had a half-life of 13 min. This half-life and that of the compound before are within 1.5-fold of each other.
For `CCCN1CNc2c(c(=O)[nH]c(=S)n2Cc2ccc(OC)c(OC)c2)C1`, the half-life was > 30 min.
In the case of `O=C(Nc1ccc(N2CCN(C(=O)c3ccccc3F)CC2)cc1)c1cncc(Br)c1`, the half-life is > 30 min.
Turning to `Cc1ccc(S(=O)(=O)Nc2ccccc2C(=O)Nc2ccc(-c3ccccc3)cc2)cc1`, the half-life was 7.3 min.
With `COc1ccc(NS(=O)(=O)c2ccc(C)cc2)c(C(=O)Nc2nc(-c3ccccc3)cs2)c1`, the half-life was 4.5 min.
With `O=C(CCCc1ccc2cccnc2n1)NCc1cc(-c2ccc(F)c(C(F)(F)F)c2)no1`, the half-life was 9.4 min.
In turn, `CCn1cc(CNC(=O)c2cc(-c3ccc(C)cc3)nc3ccc(Br)cc23)c(C)n1` came in with a half-life of 10.9 min. The half-life values of the last two compounds are within 1.5-fold of each other.
The value for `CCOc1ccc(NC(=O)c2ccc(F)c(S(=O)(=O)N(CC)Cc3ccccc3)c2)cc1` was 1.3 min; that for `N[C@H]1CN(c2c(F)cc3c(=O)c(C(=O)O)cn(C4C[C@@H]4F)c3c2Cl)CC12CC2` (stereo not given in full) was > 30 min; that for `CC[C@H]1CN2CCc3cc(OC)c(OC)cc3[C@@H]2C[C@@H]1C[C@H]1NCCc2cc(OC)c(OC)cc21` was > 30 min.
`O=C1c2ccccc2C2=Nc3ccccc3SC(c3ccc(Cl)cc3)C12` (stereo not given): the half-life is 2.96 min.
On to `Cc1cc(N2CCN(c3ccccc3)CC2)nc(-n2nc(C)cc2C)n1`, for which the half-life is > 30 min.
The value for `Cn1cc2c3c(cccc31)CN(C(=O)c1ccc(F)c(Cl)c1)CC2` was 1.88 min.
For the compound `O=c1cc(-c2nc(Nc3ccc(F)c(F)c3)c3ccccc3n2)cc[nH]1`, the half-life was > 30 min.
For the compound `O=c1c2ccccc2nc(/C=C/c2cccnc2)n1Cc1ccccc1`, the half-life came to 8.99 min.
In the case of `O=C(Nc1nnc(C2CCCCC2)s1)c1ccc(Br)s1`, the half-life is > 30 min.
The figure for `c1ccc(-c2ccc(CNc3nc(-c4ccccn4)nnc3-c3ccccc3)cc2)cc1` is 7.73 min; for `Cc1ccnc(NC(=S)N2CCN(c3ccc(C(F)(F)F)cc3)CC2)c1` it is > 30 min.
The value for `CC(O)(C#Cc1ccc2c(c1)N(c1nc(N)ncc1Cl)CC2)c1nccs1` (stereo not given) was 7.75 min.
The value for `N#C/C(=C\c1ccc(-c2ccc(C(=O)O)cc2)o1)c1nc2ccccc2[nH]1` was > 30 min; that for `O=S(=O)(Nc1ccc(-c2ccccc2)cc1)c1ccc(NCc2cccc(Cl)c2O)cc1` was 5.6 min.
`COC1C(OC(=O)c2ccc(C)[nH]2)C(O)C(Oc2ccc3c(O)c(NC(=O)c4ccc(O)c(CC=C(C)C)c4)c(=O)oc3c2Cl)OC1(C)C` (stereo not given) showed a half-life of 28.3 min.
In the case of `COc1ccc(O)c(CNc2ccc(S(=O)(=O)Nc3nccs3)cc2)c1`, the half-life was > 30 min.
As for `CN1CCN(C(=O)c2ccc3cc(CCNc4ncnc5ccc(C#N)cc45)ccc3c2)CC1`, the half-life was found to be 8.11 min.
The figure for `Cc1nc2c(-c3ccccc3)cnn2c(N)c1-c1ccccc1` is > 30 min.
The value for `COc1ccc(CN2CCc3nc(N4CCN(c5ccc(F)cc5)CC4)ncc3C2)c(OC)c1OC` was 1.65 min.
As to `O=C1C(c2ccc(C(F)(F)F)cc2)=C(Nc2ccc(Cl)cc2)c2ccccc21`, the half-life stood at 29.2 min.
In the case of `CC(C)c1ccccc1-c1nc2c(c(NCc3ccc(-c4cccnc4)cc3)n1)CNC2`, the half-life was 6.21 min.
The figure for `CC1=C[C@@H](CNCc2cccnc2)[C@H](C(C)C)C[C@H]1Cc1nnc(-c2ccc([N+](=O)[O-])cc2)o1` is 2.13 min.
As for `Fc1ccccc1-c1nc(NCc2ccc(-c3cccnc3)cc2)c2ccccc2n1`, the half-life worked out at 5.9 min.
As for `COc1cc(/C=C(\C#N)C(=O)c2ccc(O)c(O)c2)cc(I)c1O`, the half-life is > 30 min.
Take `O=S(=O)(Nc1nccs1)c1ccc(NCc2cccc(F)c2O)cc1`: the half-life is 16 min.
`COc1cccc(OC)c1C(=O)Nc1ccccc1C(=O)Nc1cccc(C(F)(F)F)c1` registered a half-life of 3.11 min.
The figure for `Cc1cc(Nc2ccc(Br)c(C)c2)n2nc(C)nc2n1` is 6.7 min; for `Nc1nc2c(s1)C(c1ccc(F)c(F)c1)CC(=O)N2` (stereo not given) it is 29.7 min.
`CCOC(=O)C1CCN(C(=O)C(C)(C)NC(=O)Nc2ccc(Cl)cc2Cl)CC1` came in with a half-life of 1.36 min.
Turning to `O=c1[nH]cnc2nc[nH]c12`, the half-life was > 30 min.
In turn, `Cc1cc(-c2nnc3n2CCCCC3)c(C)n1-c1ccc(Br)cc1` gave a half-life of 2.2 min.
Consider `Cc1nc2ccc(C(=O)N3CCC4(CC3)CC(=O)c3c(cnn3C(C)C)C4)cc2[nH]1`, for which the half-life is > 30 min.
On to `c1ccc(-c2csc3ncnc(Sc4nnn(-c5ccccc5)n4)c23)cc1`, for which the half-life amounted to 1.5 min.
The value for `Clc1ccc(C2(c3ccc(-c4cn[nH]c4)cc3)CCNCC2)cc1` was > 30 min.
The figure for `CC(=O)c1c(C)[nH]c(C(=O)Nc2cccc([S+](=O)([O-])Nc3ccccc3C)c2)c1C` is 4.4 min; for `CCOc1ccc(C(C)CNC(=O)c2cc3sccc3n2Cc2ccccc2)cc1OCC` (stereo not given) it is 2.5 min.
The value for `Cc1ccccc1C(=O)n1ccc2cc(-c3nc(NC(=O)Cc4ccc5c(c4)OCO5)sc3C)ccc21` was > 30 min.
Take `O=C(Nc1nc(-c2ccccc2)cs1)c1ccncc1NS(=O)(=O)c1ccccc1Cl`: the half-life amounted to 15 min.
`NC1(c2ccccc2Cl)CCCCC1=O` (stereo not given) gave a half-life of 11 min.
`C[C@]12N[C@H](Cc3ccccc31)c1ccccc12`: the half-life is > 30 min.
As to `Cc1ccc(-c2cc(C(=O)Nc3ccc(S(=O)(=O)N(C)Cc4nccs4)cc3)c3ccccc3n2)cc1C`, the half-life was determined as 4.1 min.
`Cc1cc(C)c(C(=O)Nc2cccc([S+](=O)([O-])N3CCCC3)c2)[nH]1` yielded a half-life of 6.5 min. This half-life is about 1.6-fold higher than that of the compound before.
In the case of `C[C@H]1CN(C(=O)Nc2ccc(F)cc2F)C[C@@H]1c1nc(-c2ccccc2)no1`, the half-life was > 30 min.
`Cc1ccc(NC(=O)c2ccncc2NS(=O)(=O)c2ccc(C)cc2)cc1` registered a half-life of 2.9 min.
Regarding `Cn1cc(Nc2cnccc2C(=O)O)c2cccnc21`, the half-life is > 30 min.
With `O=C(Nc1nc2cc(C(F)(F)F)ccc2s1)c1ccc(-c2cccc([N+](=O)[O-])c2)o1`, the half-life is > 30 min.
